Experiments:
[1] = DPPH radical scavenging assay; settings: 25 µM test compound, 0.1 mM DPPH, acetonitrile, 30 min
Protocol: A stable free radical DPPH (2,2-Diphenyl-1-picrylhydrazyl) assay was employed to test the antioxidant activity of all the synthesized compounds. Concisely, 25 µM of the test compounds were dissolved in acetonitrile and combined with 0.1 mM of DPPH (in acetonitrile) in a 1:2 ratio (80 µL and 160 µL). Then, the mixture was left undisturbed in the dark for 30 min at room temperature. After 30 min, the absorbance of the solutions was instantly measured at 517 nm using a Varioskan Multiplate Reader (Thermo Fisher Scientific, Mumbai, India). Ascorbic acid (in acetonitrile) was used as the positive control, and andrographolide and isoandrogapholide (in acetonitrile) were used as the standards. The following equation was used to determine the DPPH radical scavenging activity:% Radical scavenging activity = (Ac − As)/Ac × 100 where Ac = the absorbance of the blank (DPPH solution), and As = the absorbance of the test samples

[2] = system: 60 human cancer cell lines; test: NCI single-dose study; format: cell-based; settings: single dose 10 µM, all 60 cell lines
From the text: All the synthesized compounds (1a–1j and 2a–2j) were initially assessed for their anticancer potential at the National Cancer Institute (NCI, USA) against a diverse panel of 60 human cancer cell lines, representing nine distinct cancer types including leukemia, non-small-cell lung, colon, CNS, melanoma, ovarian, renal, prostate, and breast. The testing protocol employed by the NCI encompasses two stages: initial assessment at a single dose and subsequent evaluation at five doses.
Initially, a comprehensive anticancer screening of all twenty compounds (1a–1j and 2a–2j), including the parent compounds ADG and ISOADG, was conducted using a 10 µM dose across all 60 cell lines (a standardized protocol followed for the initial assessment of test compounds by the NCI). […] As a result, these ten compounds were chosen for five-dose studies.

Row | SMILES | % DPPH radical scavenging activity [1] [%] | % growth inhibition [2]
1 | C=C1CC[C@@H]2[C@](C)(CO)[C@H](O)CC[C@@]2(C)[C@@H]1C/C=C1/C(=O)OC[C@H]1O [ADG, andrographolide] | 58.74 | lower % growth inhibition
2 | O=C1O[C@H]([C@@H](O)CO)C(O)=C1O [ascorbic acid, reference compound] | 69.26 | –
3 | CC12CC[C@@H]3[C@](C)(CO)[C@H](O)CC[C@@]3(C)[C@@H]1CC(C1=CCOC1=O)O2 (some centres unmarked) [ISOADG, isoandrographolide, reference compound] | 57.94 | lower % growth inhibition

From publication PMC12298351, “Novel 3,19-(N-Phenyl-3-(4-fluorophenyl)-pyrazole) Acetal of Andrographolide Promotes Cell Cycle Arrest and Apoptosis in MDA-MB-231 Breast Cancer Cells” (Pharmaceuticals, 2025)
